Source: patent US8124601B2, “Compounds for the treatment of Hepatitis C” (Bristol-Myers Squibb Company, priority 2007, dated 2012)
pEC50, pIC50: −log10 of the molar value. Read-outs that look alike come from different tables or passages of the source.

Key:
HCV replicon cells = experiment: HCV replicon FRET assay; assay type: cell-based
Experimental: FRET Assay Preparation. The HCV FRET screening assay was performed in 96-well cell culture plates. The FRET peptide (Anaspec, Inc.) (Taliani et al., Anal. Biochem. 1996, 240, 60-67) contains a fluorescence donor, EDANS, near one end of the peptide and an acceptor, DABCYL, near the other end. The fluorescence of the peptide is quenched by […] resonance energy transfer (RET) between the donor and the acceptor, but as the NS3 protease cleaves the peptide the products are released from RET quenching and the fluorescence of the donor becomes apparent. The assay reagent was made as follows: 5× cell Luciferase cell culture lysis reagent from Promega (#E153A) diluted to 1× with dH2O, NaCl added to 150 mM final, the FRET peptide diluted to 20 μM final from a 2 mM stock.
To prepare plates, HCV replicon cells, with or without a Renilla luciferase reporter gene, were trypsinized and plated in a 96-well plate with titrated test compounds added in columns 3 through 12; columns 1 and 2 contained a control compound (HCV control inhibitor), and the bottom row contained cells with DMSO only. The plates were then placed in a CO2 incubator at 37° C.
Assays. Subsequent to addition of the test compounds described above (FRET Assay Preparation), at various times the plate was removed and Alamar blue solution (Trek Diagnostics, #00-100) was added to measure cellular toxicity. After reading in a Cytoflour 4000 instrument (PE Biosystems), plates were rinsed with PBS and then used for FRET assay by the addition of 30 ul of the FRET peptide assay reagent described above (FRET Assay Preparation) per well. The plate was then placed into the Cytoflour 4000 instrument which had been set to 340 excite/490 emission, automatic mode for up to 20 cycles and the plate read in a kinetic mode. Typically, the signal to noise using an endpoint analysis after the reads was at least three-fold. Alternatively, after Alamar blue reading, plates were rinsed with PBS, then used for luciferase assay using the Promega Dual-Glo Luciferase Assay System or the Promega EnduRen Live Cell Substrate assay.
Compound analysis was performed by quantification of the relative HCV replicon inhibition and the relative cytotoxicity values. To calculate cytoxicity values, the average Alamar Blue fluorescence signals from the control wells were set as 100% non-toxic. The individual signals in each of the compound test wells were then divided by the average control signal and multiplied by 100% to determine […]. To calculate the HCV replicon inhibition values, an average background value was obtained from the two wells containing the highest amount of HCV control inhibitor at the end of the assay period. These numbers were similar to those obtained from naïve Huh-7 cells. The background numbers were then subtracted from the average signal obtained from the control wells and this number was used as 100% activity. The individual signals in each of the compound test wells were then divided by the averaged control values after background subtraction and multiplied by 100% to determine percent activity. EC50 values were calculated as the concentration which caused a 50% reduction in FRET or luciferase activity. The two numbers generated for the compound plate, percent cytoxicity and percent activity, were used to determine compounds of interest for further analysis.

HCV NS5B = molecular target: T1, HCV NS5B (Hepatitis C virus genotype 1b, UniProt Q9WMX2); experiment: Modified HCV NS5B RdRp enzyme assay (preincubation protocol); assay type: biochemical
T1 construct: The protein was expressed with an 18 amino acid C-terminal truncation to enhance the solubility; made in house; host or cells: E. coli BL21(DE3)
Experimental: HCV NS5B RdRp cloning, expression, and purification. The cDNA encoding the NS5B protein of HCV, genotype 1b, was cloned into the pET21a expression vector. The protein was expressed with an 18 amino acid C-terminal truncation to enhance the solubility. The E. coli competent cell line BL21(DE3) was used for expression of the protein. Cultures were grown at 37° C. for ˜4 hours until the cultures reached an optical density of 2.0 at 600 nm. The cultures were cooled to 20° C. and induced with 1 mM IPTG. Fresh ampicillin was added to a final concentration of 50 μg/ml and the cells were grown overnight at 20° C.
Cell pellets (3 L) were lysed for purification to yield 15-24 mgs of purified NS5B. The lysis buffer consisted of 20 mM Tris-HCl, pH 7.4, 500 mM NaCl, 0.5% triton X-100, 1 mM DTT, 1 mM EDTA, 20% glycerol, 0.5 mg/ml lysozyme, 10 mM MgCl2, 15 ug/ml deoxyribonuclease I, and Complete TM protease inhibitor tablets (Roche). After addition of the lysis buffer, frozen cell pellets were resuspended using a tissue homogenizer. To reduce the viscosity of the sample, aliquots of the lysate were sonicated on ice using a microtip attached to a Branson sonicator. The sonicated lysate was centrifuged at 100,000×g for 1 hr at 4° C. and filtered through a 0.2 μm filter unit (Corning).
The protein was purified using two sequential chromatography steps: Heparin sepharose CL-6B and polyU sepharose 4B (Pharmacia). The chromatography buffers were identical to the lysis buffer but contained no lysozyme, deoxyribonuclease I, MgCl2 or protease inhibitor and the NaCl concentration of the buffer was adjusted according to the requirements for charging the protein onto the column. Each column was eluted with a NaCl gradient which varied in length from 5-50 column volumes depending on the column type. After the final chromatography step, the resulting purity of the enzyme is >90% based on SDS-PAGE analysis. The enzyme was aliquoted and stored at −80° C.
Standard HCV NS5B RdRp enzyme assay. HCV RdRp genotype 1b assays were run in a final volume of 60 μl in 96 well plates (Corning 3600). The assay buffer is composed of 20 mM Hepes, pH 7.5, 2.5 mM KCl, 2.5 mM MgCl2, 1 mM DTT, 1.6 U RNAse inhibitor (Promega N2515), 0.01 mg/ml BSA (Sigma B6917), and 2% glycerol. All compounds were serially diluted (3-fold) in DMSO and diluted further in water such that the final concentration of DMSO in the assay was 2%. HCV RdRp genotype 1b enzyme was used at a final concentration of 28 nM. A polyA template was used at 6 nM, and a biotinylated oligo-dT12 primer was used at 180 nM final concentration. Template was obtained commercially (Amersham 27-4110). Biotinylated primer was prepared by Sigma Genosys. 3H-UTP was used at 0.6 μCi (0.29 μM total UTP). Reactions were initiated by the addition of enzyme, incubated at 30° C. for 60 min, and stopped by adding 25 μl of 50 mM EDTA containing SPA beads (4 μg/μl, Amersham RPNQ 0007). Plates were read on a Packard Top Count NXT after >1 hr incubation at room temperature.
Modified HCV NS5B RdRp enzyme assay. A modified enzyme assay was performed essentially as described for the standard enzyme assay except for the following: The biotinylated oligo dT12 primer was precaptured on streptavidin-coated SPA beads by mixing primer and beads in assay buffer and incubating at room temperature for one hour. Unbound primer was removed after centrifugation. The primer-bound beads were resuspended in 20 mM Hepes buffer, pH 7.5 and used in the assay at final concentrations of 20 nM primer and 0.67 μg/μl beads. Order of addition in the assay: enzyme (1.75 nM) was added to diluted compound followed by the addition of a mixture of template (0.36 nM), 3H-UTP (0.6 μCi, 0.29 μM), and primer-bound beads, to initiate the reaction; concentrations given are final. Reactions were allowed to proceed for 4 hours at 30° C.
IC50 values for compounds were determined using seven different [I]. […]

T1 sequence (Q9WMX2 2420-2992): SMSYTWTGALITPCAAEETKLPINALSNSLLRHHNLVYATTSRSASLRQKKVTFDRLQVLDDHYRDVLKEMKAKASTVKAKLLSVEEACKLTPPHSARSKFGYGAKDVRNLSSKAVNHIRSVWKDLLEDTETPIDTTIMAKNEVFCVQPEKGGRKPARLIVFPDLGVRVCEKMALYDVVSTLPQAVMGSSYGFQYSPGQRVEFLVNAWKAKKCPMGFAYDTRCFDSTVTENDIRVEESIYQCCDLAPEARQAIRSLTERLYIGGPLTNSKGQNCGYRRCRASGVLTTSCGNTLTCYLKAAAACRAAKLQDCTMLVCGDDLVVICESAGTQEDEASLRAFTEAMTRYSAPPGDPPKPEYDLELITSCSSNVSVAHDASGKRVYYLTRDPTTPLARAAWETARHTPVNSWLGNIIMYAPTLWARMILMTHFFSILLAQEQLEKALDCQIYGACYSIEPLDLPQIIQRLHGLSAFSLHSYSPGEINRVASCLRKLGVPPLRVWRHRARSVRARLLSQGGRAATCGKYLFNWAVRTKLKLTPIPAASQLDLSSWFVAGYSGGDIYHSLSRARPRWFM

| SMILES | pEC50 (HCV replicon cells; Hepatitis C virus) | pIC50 (HCV NS5B) | pEC50 (HCV replicon cells) |
| --- | --- | --- | --- |
| COc1ccc2c(c1)C1CC1(C(=O)N1CCC3(CCN(C(=O)OC(C)(C)C)C3)C1)Cn1c-2c(C2CCCCC2)c2ccc(C(=O)NS(=O)(=O)C(C)C)cc21 (stereo not drawn) | 6.30 to 8.34 | 6.30 to 8.34 | – |
| COc1ccc2c(c1)C1CC1(C(=O)N1CCC3(CCNC3)C1)Cn1c-2c(C2CCCCC2)c2ccc(C(=O)NS(=O)(=O)C(C)C)cc21 (stereo not drawn) | 6.30 to 8.34 | 6.30 to 8.34 | – |
| COc1ccc2c(c1)C1CC1(C(=O)N1CCCC3(CCN(C)C3=O)C1)Cn1c-2c(C2CCCCC2)c2ccc(C(=O)NS(=O)(=O)C3CC3)cc21 (stereo not drawn) | 6.30 to 8.34 | 6.30 to 8.34 | – |
| COc1ccc2c(c1)C1CC1(C(=O)N1CCC3(CCCN3C(=O)OC(C)(C)C)CC1)Cn1c-2c(C2CCCCC2)c2ccc(C(=O)NS(=O)(=O)C(C)C)cc21 (stereo not drawn) | 6.30 to 8.34 | 6.30 to 8.34 | – |
| CCCS(=O)(=O)NC(=O)c1ccc2c(C3CCCCC3)c3n(c2c1)CC1(C(=O)N2CCC4(CCCN4C(=O)OC(C)(C)C)CC2)CC1c1cc(OC)ccc1-3 (stereo not drawn) | 6.30 to 8.34 | 6.30 to 8.34 | – |
| COc1ccc2c(c1)C1CC1(C(=O)N1CCC3(CCCN3)CC1)Cn1c-2c(C2CCCCC2)c2ccc(C(=O)NS(=O)(=O)C(C)C)cc21 (stereo not drawn) | 6.30 to 8.34 | 6.30 to 8.34 | – |
| CCCS(=O)(=O)NC(=O)c1ccc2c(C3CCCCC3)c3n(c2c1)CC1(C(=O)N2CCC4(CCCN4)CC2)CC1c1cc(OC)ccc1-3 (stereo not drawn) | 6.30 to 8.34 | 6.30 to 8.34 | – |
| COc1ccc2c(c1)C1CC1(C(=O)N1CCC3(CCCN3C)CC1)Cn1c-2c(C2CCCCC2)c2ccc(C(=O)NS(=O)(=O)C(C)C)cc21 (stereo not drawn) | 6.30 to 8.34 | 6.30 to 8.34 | – |
| CCCS(=O)(=O)NC(=O)c1ccc2c(C3CCCCC3)c3n(c2c1)CC1(C(=O)N2CCC4(CCCN4C)CC2)CC1c1cc(OC)ccc1-3 (stereo not drawn) | 6.30 to 8.34 | 6.30 to 8.34 | – |
| COc1ccc2c(c1)C=C(C(=O)N1CCCC13CCN(C)CC3)Cn1c-2c(C2CCCCC2)c2ccc(C(=O)NS(=O)(=O)C(C)C)cc21 | 6.30 to 8.34 | 6.30 to 8.34 | – |
| COc1ccc2c(c1)C1CC1(C(=O)N1CCCC13CCN(C)CC3)Cn1c-2c(C2CCCCC2)c2ccc(C(=O)NS(=O)(=O)C(C)C)cc21 (stereo not drawn) | 6.30 to 8.34 | 6.30 to 8.34 | – |
| CCCS(=O)(=O)NC(=O)c1ccc2c(C3CCCCC3)c3n(c2c1)CC1(C(=O)N2CCCC24CCN(C)CC4)CC1c1cc(OC)ccc1-3 (stereo not drawn) | 6.30 to 8.34 | 6.30 to 8.34 | – |
| COc1ccc2c(c1)C1CC1(C(=O)N1CCC3(CCCN3C(C)=O)CC1)Cn1c-2c(C2CCCCC2)c2ccc(C(=O)NS(=O)(=O)C(C)C)cc21 (stereo not drawn) | 6.30 to 8.34 | 6.30 to 8.34 | – |
| CCCS(=O)(=O)NC(=O)c1ccc2c(C3CCCCC3)c3n(c2c1)CC1(C(=O)N2CCC4(CCCN4C(C)=O)CC2)CC1c1cc(OC)ccc1-3 (stereo not drawn) | 6.30 to 8.34 | 6.30 to 8.34 | – |
| COc1ccc2c(c1)C1CC1(C(=O)N1CCNC3(CCCC3)C1)Cn1c-2c(C2CCCCC2)c2ccc(C(=O)NS(=O)(=O)C(C)C)cc21 (stereo not drawn) | 6.30 to 8.34 | 6.30 to 8.34 | – |
| COc1ccc2c(c1)C1CC1(C(=O)N1CCNC3(CCCCC3)C1)Cn1c-2c(C2CCCCC2)c2ccc(C(=O)NS(=O)(=O)C(C)C)cc21 (stereo not drawn) | 6.30 to 8.34 | 6.30 to 8.34 | – |
| CCCS(=O)(=O)NC(=O)c1ccc2c(C3CCCCC3)c3n(c2c1)CC1(C(=O)N2CCNC4(CCCC4)C2)CC1c1cc(OC)ccc1-3 (stereo not drawn) | 6.30 to 8.34 | 6.30 to 8.34 | – |
| CCCS(=O)(=O)NC(=O)c1ccc2c(C3CCCCC3)c3n(c2c1)CC1(C(=O)N2CCNC4(CCCCC4)C2)CC1c1cc(OC)ccc1-3 (stereo not drawn) | 6.30 to 8.34 | 6.30 to 8.34 | – |
| COc1ccc2c(c1)C1CC1(C(=O)N1CCN(C)C3(CCCC3)C1)Cn1c-2c(C2CCCCC2)c2ccc(C(=O)NS(=O)(=O)C(C)C)cc21 (stereo not drawn) | 6.30 to 8.34 | 6.30 to 8.34 | – |
| COc1ccc2c(c1)C1CC1(C(=O)N1CCN(C)C3(CCCCC3)C1)Cn1c-2c(C2CCCCC2)c2ccc(C(=O)NS(=O)(=O)C(C)C)cc21 (stereo not drawn) | 6.30 to 8.34 | 6.30 to 8.34 | – |
| CCCS(=O)(=O)NC(=O)c1ccc2c(C3CCCCC3)c3n(c2c1)CC1(C(=O)N2CCN(C)C4(CCCC4)C2)CC1c1cc(OC)ccc1-3 (stereo not drawn) | 6.30 to 8.34 | 6.30 to 8.34 | – |
| COc1ccc2c(c1)C1CC1(C(=O)N1CCCC3(CCN(C)C3=O)C1)Cn1c-2c(C2CCCCC2)c2ccc(C(=O)NS(=O)(=O)C(C)C)cc21 (stereo not drawn) [drawing 21] | 6.30 to 8.34 | 6.30 to 8.34 | – |
| COc1ccc2c(c1)C1CC1(C(=O)N1CCCC3(CCN(C)C3=O)C1)Cn1c-2c(C2CCCCC2)c2ccc(C(=O)NS(=O)(=O)C(C)C)cc21 (stereo not drawn) [drawing 22] | – | 6.30 to 8.34 | 6.30 to 8.34 |
| COc1ccc2c(c1)C1CC1(C(=O)N1CCCC3(CCN(C)C3)C1)Cn1c-2c(C2CCCCC2)c2ccc(C(=O)NS(=O)(=O)C(C)C)cc21 (stereo not drawn) [drawing 23] | 6.30 to 8.34 | 6.30 to 8.34 | – |
| COc1ccc2c(c1)C1CC1(C(=O)N1CCCC3(CCN(C)C3)C1)Cn1c-2c(C2CCCCC2)c2ccc(C(=O)NS(=O)(=O)C(C)C)cc21 (stereo not drawn) [drawing 24] | – | 6.30 to 8.34 | 6.30 to 8.34 |
| CCCS(=O)(=O)NC(=O)c1ccc2c(C3CCCCC3)c3n(c2c1)CC1(C(=O)N2CCCC4(CCN(C)C4)C2)CC1c1cc(OC)ccc1-3 (stereo not drawn) [drawing 25] | 6.30 to 8.34 | 6.30 to 8.34 | – |
| CCCS(=O)(=O)NC(=O)c1ccc2c(C3CCCCC3)c3n(c2c1)CC1(C(=O)N2CCCC4(CCN(C)C4)C2)CC1c1cc(OC)ccc1-3 (stereo not drawn) [drawing 26] | – | 6.30 to 8.34 | 6.30 to 8.34 |
